Test results published in US20040077531A1, “Use of galanin-like peptide” (priority 2001, published 2004).

Columns and labels:
Assay type in all cases: in vivo, rat
blood LH levels [1] = experiment: Blood LH levels after intraventricular GALP in Zucker fatty and Zucker lean rats; conditions: 1 nmol third ventricle
Experimental: Effects of GALP administration into the third ventricle on LH levels in plasma were examined using Zucker obese rats having an abnormality of Leptin receptor. Briefly, adult male Zucker obese rats (body weights at the time of surgery: fatty: 410-430 g; lean: 290-310 g) were anesthetized by intraperitoneal administration of 50 mg/kg pentobarbital and fixed in a stereotaxic apparatus for rat brain. The incisor bar was set 3.3 mm below the interaural line. The skull surface was exposed, and a hole was drilled in the skull with a dental drill in order to implant a guide cannula AG-8 (inside dia. 0.4 mm, outside dia. 0.5 mm; Eicom) in the third ventricle. Further, four anchor screws were embedded around the hole. A stainless guide cannula (AG-12) was inserted so that its tip was located above the third ventricle. The stereotaxic coordinates were set as follows according to the atlas of Paxinos and Watson (1998): for Zucker fatty, AP: −1.00 mm, L: 0.0 mm, H: 5.6 mm from bregma, and for Zucker lean, AP: −0.9 mm, L: 0.0 mm, H: 5.4 mm from bregma. The guide cannula was fixed onto the skull with instant glue, dental cement and the anchor screws. […]
The rats were allowed about one week for recovery after the implantation of the guide cannula. […] The LH levels in the plasma were measured by radioimmunoassay (Amersham).

blood LH levels [2] = experiment: Blood LH level time course after intraventricular administration in freely moving Wistar rats; conditions: for blood LH level compared with the control group: third ventricle, 0-60 min
Experimental: A guide cannula was implanted in adult male Wistar rats treated in the same manner as described in Example 1. The rats were allowed about one week for recovery from the surgery. Then, they received another surgery so that blood samples can be taken from them moving freely. Briefly, the guide cannula-implanted rat was anesthetized by intraperitoneal administration of […] pentobarbital and fixed on an anatomical pad in face-up position. Then, the left jugular vein was exposed. A polyethylene tube SP35 (inside dia. 0.5 mm, outside dia. 0.9 mm; Natsume Seisakusho) was cut to give an about 30 cm length, filled with 200 U/ml heparin-containing physiological saline, inserted into the jugular vein about 4.5 cm, and fixed. The other end of the tube was passed subcutaneously through dorsal skin and exposed from the neck (dorsal).
After one night from the surgery, 300 μl of blood was collected from each rat using a 1 ml injection syringe for tuberculin and a 25-gauge injection needle (both Terumo Corp.) prior to the administration of rat GALP (a peptide consisting of the amino acid sequence as shown in SEQ ID NO: 33). In order to prevent blood coagulation, 10 μl of 300 KIU/ml aprotinin solution containing 3 mg/ml EDTA was added in advance into the injection syringe. The cap nut and the dummy cannula installed on the rat skull were removed. Instead of them, a stainless microinjection cannula (inside dia. 0.17 mm, outside dia. 0.35 mm; Eicom) connected with a Teflon tube (length 50 cm, inside dia. 0.1 mm, outside dia. 0.35 mm; Eicom) was inserted into the guide cannula. The length of the microinjection cannula was adjusted in advance so that 1 mm of it tip was exposed from the guide cannula. One end of the Teflon tube was connected with a microsyringe pump. […] Five minutes after the completion of the injection, the microinjection cannula was removed, and a dummy cannula was fixed again with a cap nut. […] The LH levels in the plasma were measured by radioimmunoassay (Amersham).

[3] = system: pituitary hormone levels in plasma; experiment: Pituitary hormone levels in plasma after GALP administration into the third ventricle; conditions: Wistar rats
Experimental: Effects of GALP administration into the third ventricle on pituitary hormone levels in plasma were examined. Briefly, adult male Wistar rats (body weight: 350-380 g at the time of surgery) were anesthetized by intraperitoneal administration of 50 mg/kg pentobarbital and fixed in a stereotaxic apparatus for rat brain. The incisor bar was set 3.3 mm below the interaural line. The skull surface was exposed, and a hole was drilled in the skull with a dental drill in order to implant a guide cannula AG-8 (inside dia. 0.4 mm, outside dia. 0.5 mm; Eicom) in the third ventricle. Further, four anchor screws were embedded around the hole. A stainless guide cannula (AG-12) was inserted so that its tip was located above the third ventricle. The stereotaxic coordinates were set as follows according to the atlas of Paxinos and Watson (1998): AP: −0.8 mm, L: 0.0 mm, […] from bregma. The guide cannula was fixed onto the skull with instant glue, dental cement and the anchor screws. […]
The rats were allowed about one week for recovery after the implantation of the guide cannula. […] Growth hormone (GH), thyroid-stimulating hormone (TSH), follicle-stimulating hormone (FSH), LH, prolactin and adorenocorticotropic hormone (ACTH) contained in the plasma were quantified by radioimmunoassay (GH, TSH, FSH, LH and prolactin; Amersham) (ACTH; Mitsubishi Kagaku).

Substance: rat GALP (APAHRGRGGWTLNSAGYLLGPVLHLSSKANQGRKTDSALEILDLWKAIDGLPYSRSPRMT; Rat)
- blood LH levels compared with the control group (blood LH levels [1]; Zucker fatty rats, at 10, 20 and 30 min): significant rise
- blood LH levels compared with the control group (blood LH levels [1]; Zucker lean rats): no significant rise
- blood LH level compared with the control group (blood LH levels [2]; 1 nmol administration group): tendency to rise
- time of peak of blood LH rise after the administration (blood LH levels [2]; 5 nmol administration group): 30 min
- blood LH level compared with the control group (blood LH levels [2]; 5 nmol administration group): significant rise
- blood LH level compared to the control group ([3]; 0.5 nmol and 5 nmol intraventricular, 10 min after injection): significant increase
- other pituitary hormone levels in blood (FSH, GH, TSH, ACTH, prolactin) ([3]; intraventricular, 5 nmol/rat): no other pituitary hormone levels were changed
